From patent US10294202B2, “Pyrrolidinones as herbicides” (FMC Corporation, priority 2013, dated 2019)

What was measured:
Test in all cases: Test D pre-/postemergence herbicide test
buckwheat, wild = assay type: in vivo, Polygonum convolvulus; conditions: for Plant response rating: Buckwheat, Wild, scale 0 to 100; for Plant response rating, Buckwheat, Wild: scale 0 to 100 (0 no effect, 100 complete control)
Text: (§1) Seeds of plant species selected from bluegrass (annual bluegrass, Poa annua), blackgrass (Alopecurus myosuroides), canarygrass (littleseed canarygrass, Phalaris minor), chickweed (common chickweed, Stellaria media), galium (catchweed bedstraw, Galium aparine), bromegrass, downy (downy bromegrass, Bromus tectorum), field poppy (Papaver rhoeas), field violet (Viola arvensis), foxtail, green (green foxtail, Setaria viridis), deadnettle (henbit deadnettle, Lamium amplexicaule), ryegrass, Italian (Italian ryegrass, Lolium multiflorum), kochia (Kochia scoparia), lambsquarters (Chenopodium album), oilseed rape (Brassica napus), pigweed (Amaranthus retroflexus), chamomile (scentless chamomile, Matricaria inodora), Russian thistle (Salsola kali), speedwell (bird's-eye speedwell, Veronica persica), barley, spring (spring barley, Hordeum vulgare), wheat, spring (spring wheat, Triticum aestivum), buckwheat, wild (wild buckwheat, Polygonum convolvulus), mustard, wild (wild mustard, Sinapis arvensis), oat, wild (wild oat, Avena fatua), radish, wild (wild radish, Raphanus raphanistrum), […]), barley, winter (winter barley, Hordeum vulgare), and wheat, winter (winter wheat, Triticum aestivum) were planted into a silt loam soil and treated preemergence with test chemicals formulated in a non-phytotoxic solvent mixture which included a surfactant. At the same time, these species were planted in pots containing Redi-Earth® planting medium (Scotts Company, 14111 Scottslawn Road, Marysville, Ohio 43041) comprising spaghnum peat moss, vermiculite, wetting agent and starter nutrients and treated with postemergence applications of the test chemicals formulated in the same manner. Plants ranged in height from 2 to 18 cm (1- to 4-leaf stage). Treated plants and controls were maintained in a controlled growth environment for 7 to 21 days after which time all species were compared to controls and visually evaluated. Plant response ratings, summarized in Table D, are based on a scale of 0 to 100 where 0 is no effect and 100 is complete control. A dash (-) response means no test result.

oat, wild = assay type: in vivo, Avena fatua; conditions: for Plant response rating: Postemergence, Oat, Wild, scale 0 to 100; for Plant response rating, Oat, Wild: Preemergence, scale 0 to 100 (0 no effect, 100 complete control)
Text: as §1

canarygrass = assay type: in vivo, Phalaris minor; conditions: for Plant response rating: Canarygrass, scale 0 to 100; for Plant response rating, Canarygrass: scale 0 to 100 (0 no effect, 100 complete control)
Text: as §1

deadnettle = assay type: in vivo, Lamium amplexicaule; conditions: for Plant response rating: Deadnettle, scale 0 to 100; for Plant response rating, Deadnettle: scale 0 to 100 (0 no effect, 100 complete control)
Text: as §1

In the case of O=C1NCC(c2ccc(F)c(F)c2)C1C(=O)Nc1cccc(F)c1 (racemic) [Compound 12], the Plant response rating (buckwheat, wild; Postemergence, 16 g ai/ha) is reported as 0, the Plant response rating (buckwheat, wild; Postemergence, 31 g ai/ha) is reported as 0 and the Plant response rating (buckwheat, wild; Postemergence, 62 g ai/ha) is reported as 10. The Plant response rating (buckwheat, wild; Postemergence, 125 g ai/ha) was 10, the Plant response rating (buckwheat, wild; Postemergence, 250 g ai/ha) was 10 and the “Plant response rating, Buckwheat, Wild” value (buckwheat, wild; Preemergence, 31 g ai/ha) was 0. For the same compound, the “Plant response rating, Buckwheat, Wild” value (buckwheat, wild; Preemergence, 62 g ai/ha) was 0, the “Plant response rating, Buckwheat, Wild” value (buckwheat, wild; Preemergence, 16 g ai/ha) was 0 and the Plant response rating (buckwheat, wild; Preemergence, 125 g ai/ha) was 0. The Plant response rating (buckwheat, wild; Preemergence, 250 g ai/ha) was 100, the Plant response rating (oat, wild; 16 g ai/ha) was 0 and the Plant response rating (oat, wild; 31 g ai/ha) was 0. It also gave a Plant response rating (oat, wild; 62 g ai/ha) of 10, a Plant response rating (oat, wild; 125 g ai/ha) of 15 and a Plant response rating (oat, wild; 250 g ai/ha) of 20. For the same compound, the “Plant response rating, Oat, Wild” value (oat, wild; 31 g ai/ha) was 0, the “Plant response rating, Oat, Wild” value (oat, wild; 62 g ai/ha) was 0 and the “Plant response rating, Oat, Wild” value (oat, wild; 125 g ai/ha) was 0. The “Plant response rating, Oat, Wild” value (oat, wild; 250 g ai/ha) was 0, the “Plant response rating, Oat, Wild” value (oat, wild; 16 g ai/ha) was 0 and the Plant response rating (canarygrass; Postemergence, 16 g ai/ha) was 0. The Plant response rating (canarygrass; Postemergence, 31 g ai/ha) was 0, the Plant response rating (canarygrass; Postemergence, 62 g ai/ha) was 15 and the Plant response rating (canarygrass; Postemergence, 125 g ai/ha) was 15. For the same compound, the Plant response rating (canarygrass; Postemergence, 250 g ai/ha) was 30, the “Plant response rating, Canarygrass” value (canarygrass; Preemergence, 31 g ai/ha) was 0 and the “Plant response rating, Canarygrass” value (canarygrass; Preemergence, 62 g ai/ha) was 0. The “Plant response rating, Canarygrass” value (canarygrass; Preemergence, 16 g ai/ha) was 0, the Plant response rating (canarygrass; Preemergence, 125 g ai/ha) was 20 and the Plant response rating (canarygrass; Preemergence, 250 g ai/ha) was 40. For the same compound, the Plant response rating (deadnettle; Postemergence, 16 g ai/ha) was 0, the Plant response rating (deadnettle; Postemergence, 31 g ai/ha) was 0 and the Plant response rating (deadnettle; Postemergence, 62 g ai/ha) was 10. The Plant response rating (deadnettle; Postemergence, 125 g ai/ha) was 15, the Plant response rating (deadnettle; Postemergence, 250 g ai/ha) was 20 and the “Plant response rating, Deadnettle” value (deadnettle; Preemergence, 31 g ai/ha) was 0. For the same compound, the “Plant response rating, Deadnettle” value (deadnettle; Preemergence, 62 g ai/ha) was 0, the “Plant response rating, Deadnettle” value (deadnettle; Preemergence, 16 g ai/ha) was 0 and the Plant response rating (deadnettle; Preemergence, 125 g ai/ha) was 0. It also gave a Plant response rating (deadnettle; Preemergence, 250 g ai/ha) of 50.
O=C1NCC(c2cc(F)c(F)c(F)c2)C1C(=O)Nc1ccccc1C(F)(F)F (racemic) [Compound 33] was tested, and the Plant response rating (buckwheat, wild; Postemergence, 16 g ai/ha) was 0, the Plant response rating (buckwheat, wild; Postemergence, 31 g ai/ha) was 0 and the Plant response rating (buckwheat, wild; Postemergence, 62 g ai/ha) was 0. It also gave a Plant response rating (buckwheat, wild; Postemergence, 125 g ai/ha) of 0, a Plant response rating (buckwheat, wild; Postemergence, 250 g ai/ha) of 10 and a Plant response rating (oat, wild; 16 g ai/ha) of 0. The Plant response rating (oat, wild; 31 g ai/ha) was 0, the Plant response rating (oat, wild; 62 g ai/ha) was 0 and the Plant response rating (oat, wild; 125 g ai/ha) was 0. For the same compound, the Plant response rating (oat, wild; 250 g ai/ha) was 0, the Plant response rating (canarygrass; Postemergence, 16 g ai/ha) was 0 and the Plant response rating (canarygrass; Postemergence, 31 g ai/ha) was 0. It also gave a Plant response rating (canarygrass; Postemergence, 62 g ai/ha) of 0, a Plant response rating (canarygrass; Postemergence, 125 g ai/ha) of 0 and a Plant response rating (canarygrass; Postemergence, 250 g ai/ha) of 0. For the same compound, the Plant response rating (deadnettle; Postemergence, 16 g ai/ha) was 0, the Plant response rating (deadnettle; Postemergence, 31 g ai/ha) was 0 and the Plant response rating (deadnettle; Postemergence, 62 g ai/ha) was 0. For the same compound, the Plant response rating (deadnettle; Postemergence, 125 g ai/ha) was 0 and the Plant response rating (deadnettle; Postemergence, 250 g ai/ha) was 10.
O=C1NCC(c2cc(F)c(F)c(F)c2)C1C(=O)Nc1ccccc1F (racemic) [Compound 34] gave a Plant response rating (buckwheat, wild; Postemergence, 16 g ai/ha) of 0, a Plant response rating (buckwheat, wild; Postemergence, 31 g ai/ha) of 0 and a Plant response rating (buckwheat, wild; Postemergence, 62 g ai/ha) of 0. The Plant response rating (buckwheat, wild; Postemergence, 125 g ai/ha) was 0, the Plant response rating (buckwheat, wild; Postemergence, 250 g ai/ha) was 0 and the Plant response rating (oat, wild; 16 g ai/ha) was 0. The Plant response rating (oat, wild; 31 g ai/ha) was 0, the Plant response rating (oat, wild; 62 g ai/ha) was 0 and the Plant response rating (oat, wild; 125 g ai/ha) was 0. The Plant response rating (oat, wild; 250 g ai/ha) was 0, the Plant response rating (canarygrass; Postemergence, 16 g ai/ha) was 0 and the Plant response rating (canarygrass; Postemergence, 31 g ai/ha) was 0. For the same compound, the Plant response rating (canarygrass; Postemergence, 62 g ai/ha) was 0, the Plant response rating (canarygrass; Postemergence, 125 g ai/ha) was 0 and the Plant response rating (canarygrass; Postemergence, 250 g ai/ha) was 0. For the same compound, the Plant response rating (deadnettle; Postemergence, 16 g ai/ha) was 0, the Plant response rating (deadnettle; Postemergence, 31 g ai/ha) was 0 and the Plant response rating (deadnettle; Postemergence, 62 g ai/ha) was 0. For the same compound, the Plant response rating (deadnettle; Postemergence, 125 g ai/ha) was 0 and the Plant response rating (deadnettle; Postemergence, 250 g ai/ha) was 0.
With O=C1NCC(c2cccc(C(F)(F)F)c2)C1C(=O)Nc1ccc(F)cc1F (racemic) [Compound 207] the “Plant response rating, Buckwheat, Wild” value (buckwheat, wild; Preemergence, 31 g ai/ha) was 0, the “Plant response rating, Buckwheat, Wild” value (buckwheat, wild; Preemergence, 62 g ai/ha) was 15 and the “Plant response rating, Buckwheat, Wild” value (buckwheat, wild; Preemergence, 125 g ai/ha) was 25. For the same compound, the Plant response rating (buckwheat, wild; Preemergence, 250 g ai/ha) was 35, the “Plant response rating, Oat, Wild” value (oat, wild; 31 g ai/ha) was 0 and the “Plant response rating, Oat, Wild” value (oat, wild; 62 g ai/ha) was 0. For the same compound, the “Plant response rating, Oat, Wild” value (oat, wild; 125 g ai/ha) was 5, the “Plant response rating, Oat, Wild” value (oat, wild; 250 g ai/ha) was 20 and the “Plant response rating, Canarygrass” value (canarygrass; Preemergence, 31 g ai/ha) was 0. The “Plant response rating, Canarygrass” value (canarygrass; Preemergence, 62 g ai/ha) was 5, the “Plant response rating, Canarygrass” value (canarygrass; Preemergence, 125 g ai/ha) was 0 and the Plant response rating (canarygrass; Preemergence, 250 g ai/ha) was 75. The “Plant response rating, Deadnettle” value (deadnettle; Preemergence, 31 g ai/ha) was 0, the “Plant response rating, Deadnettle” value (deadnettle; Preemergence, 62 g ai/ha) was 0 and the “Plant response rating, Deadnettle” value (deadnettle; Preemergence, 125 g ai/ha) was 20. For the same compound, the Plant response rating (deadnettle; Preemergence, 250 g ai/ha) was 20.
For O=C1NCC(c2cccc(C(F)(F)F)c2)C1C(=O)Nc1cccc(F)c1F (stereo not shown) [Compound 241], the “Plant response rating, Buckwheat, Wild” value (buckwheat, wild; Preemergence, 31 g ai/ha) was 15, the “Plant response rating, Buckwheat, Wild” value (buckwheat, wild; Preemergence, 62 g ai/ha) was 15 and the “Plant response rating, Buckwheat, Wild” value (buckwheat, wild; Preemergence, 125 g ai/ha) was 20. For the same compound, the Plant response rating (buckwheat, wild; Preemergence, 250 g ai/ha) was 80, the “Plant response rating, Oat, Wild” value (oat, wild; 31 g ai/ha) was 15 and the “Plant response rating, Oat, Wild” value (oat, wild; 62 g ai/ha) was 15. For the same compound, the “Plant response rating, Oat, Wild” value (oat, wild; 125 g ai/ha) was 20, the “Plant response rating, Oat, Wild” value (oat, wild; 250 g ai/ha) was 55 and the “Plant response rating, Canarygrass” value (canarygrass; Preemergence, 31 g ai/ha) was 20. For the same compound, the “Plant response rating, Canarygrass” value (canarygrass; Preemergence, 62 g ai/ha) was 45, the “Plant response rating, Canarygrass” value (canarygrass; Preemergence, 125 g ai/ha) was 65 and the Plant response rating (canarygrass; Preemergence, 250 g ai/ha) was 75. For the same compound, the “Plant response rating, Deadnettle” value (deadnettle; Preemergence, 31 g ai/ha) was 35, the “Plant response rating, Deadnettle” value (deadnettle; Preemergence, 62 g ai/ha) was 30 and the “Plant response rating, Deadnettle” value (deadnettle; Preemergence, 125 g ai/ha) was 35. It also gave a Plant response rating (deadnettle; Preemergence, 250 g ai/ha) of 45.
